Series [1] has as its target T1, full length LexA from P. aeruginosa (RecA*-mediated cleavage) (Pseudomonas aeruginosa, UniProt P37452).
T1 construct: examining RecA^∗-mediated cleavage of full length LexA from P. aeruginosa; made in house
Briefly: Orthogonal 32P-LexA cleavage assay, full-length P. aeruginosa LexA. Format: biochemical. How it is done:
(§1) Full-length E. coli and P. aeruginosa LexA were engineered with a RRXS phosphorylation site on the N-terminus of the full-length protein, allowing for ^32P labeling by protein kinase A to produce ^32P-LexA, as described previously ([Mo et al., 2018]). Reactions contained 100 nM ^32P-LexA, 200 nM RecA and 10 μM ATPγS and the buffer conditions were identical to those in the HTS assay. Compounds were added in DMSO and the final concentration was 2%. Reactions were incubated for 30 min at room temperature after which 2 × Laemmli buffer was added to stop the assay. The stopped reactions were subjected to 15% SDS-PAGE and the gels were visualized via phosphorimaging on a Typhoon imager (GE Healthcare Bio-Sciences, Marlborough, MA, United States). The intact and cleaved bands were quantified using Quantity One (Bio-Rad, Hercules, CA, United States) and the fraction inhibited was calculated. […] Plots of fraction inhibited against compound concentration were fitted to Equation 1.

A short description of series [2]: Solubility (inferred from titration curves in assay buffer; DMSO stocks). The format is physicochemical. The note with it: FlAsH-LexA cleavage assay buffer, aqueous buffer; suggested by normal titration curves in FlAsH-LexA assay buffer; read-out: aqueous solubility maintained up to. From the text:
Representative titrations for the compounds can be found in the Supplementary Figure 1.

Series [3] has as its target T2, E. coli FlAsH-LexA (RecA-promoted LexA cleavage) (Escherichia coli, UniProt P0A7C2). The experiment in a line: biochemical.
Procedure: (§6) IC50 values were routinely determined using the E. coli FlAsH-LexA cleavage assay previously used to perform HTS ([Mo et al., 2018]). In this assay RecA-promoted LexA cleavage is monitored using fluorescence polarization. […] Reactions were performed in 384-well plates and components were added as 10 μL additions of ATPγS, ssDNA and RecA, in buffer and 10 μL of E. coli FlAsH-LexA in buffer using a Janus liquid handler (Perkin-Elmer). Compound was added as a DMSO solution using a pin tool, and the final concentration of DMSO in the reaction was 1.2%. Once the reaction components were combined, reactions were centrifuged for 1 min at 500 rpm and incubated for 30 min at room temperature. Reactions were quenched with a 10 μL addition of 50 mM EDTA and plates were read on a Tecan Infinite F200 Pro plate reader (Tecan US, Inc., Morrisville, NC, United States). […] On each plate 32 positive (-RecA) and 32 negative controls (+RecA) in which DMSO without compound was added were used to define the range of mP and calculate the fraction inhibited.
(§7) IC50 values were estimated by non-linear least squares fitting to the data using Equation 1.
(§8) where FI = Fraction inhibited, [I] = Concentration of compound and n = Hill coefficient. Fitting was performed using Igor Pro (WaveMetrics Inc., Lake Oswego, OR, United States).
Series [4] is described as follows: Cytotoxicity testing with HG2 cells. Format: cell-based.
Series [5] deals with T2, E. coli FlAsH-LexA (RecA-promoted LexA cleavage). The note with it: for rank order of activities, ortho mono-substitution on area A phenyl: FlAsH-LexA cleavage assay; for activity in FlAsH-LexA cleavage assay (in words): highest concentration 111 μM.
Procedure: as §6, §7, §8
Series [6] deals with ΔtolC E. coli. The experiment in a line: Frequency of resistance (rifampin-resistance mutation rate). The format is cell-based. The method, then:
A starter culture of ΔtolC E. coli was cultured overnight at 37°C with shaking in LB broth. The next day the culture was diluted 3 × 10^7-fold in to LB broth. The dilution was used to produce four sets of twelve cultures, each containing 1 mL. To one set was added 10 μL of deionized H2O plus 10 μL of DMSO, to the second set was added 10 μL of 125 ng/mL ciprofloxacin in deionized H2O plus 10 μL of DMSO, to the third set was added 10 μL of deionized H2O plus 10 μL of a 10 mM solution of 14 in DMSO and to the fourth set was added 10 μL of 125 ng/mL ciprofloxacin in deionized H2O plus 10 μL of 14 in DMSO.
The 48 cultures were incubated at 37°C with shaking for 48 h. To determine the population size, spot plating was performed starting with 1 μL of the cultures diluted 10^5-fold. A 100 μL aliquot of each 10^5-fold dilution was transferred to a 96-well plate and serially diluted (10-fold dilutions) into LB broth. The dilutions (5 μL) were spotted on LB agar plates and the plates were incubated overnight at 37°C. To determine the rifampin resistant population, 999 μL of each 1 mL culture was centrifuged at 6000 rpm for 10 min to remove the cells from solution and the cells were suspended in 100 μL of autoclaved 0.15 M NaCl. The 100 μL solutions were plated on the LB plates containing 100 μg/mL rifampin and incubated for 2 days at 37°C. Following counting of the colonies the program bz-rates ([Gillet-Markowska et al., 2015]) was used to estimate mutation rates.

The target of series [7] is T3, full-length E. coli LexA (RecA*-induced cleavage) (Escherichia coli, UniProt P0A7C2).
T3 construct: Full-length E. coli and P. aeruginosa LexA were engineered with a RRXS phosphorylation site on the N-terminus of the full-length protein; made in house
The experiment in a line: Orthogonal 32P-LexA cleavage assay, full-length E. coli LexA. The format is biochemical. The method, then:
as §1

The target in series [8] is T4, LexA-S119A / Cy5-labeled SOS operator DNA (Escherichia coli, UniProt P0A7C2, S119A).
T4 construct: made in house
The experiment in a line: Electrophoretic mobility shift assay (EMSA), LexA binding to SOS operator DNA. Particulars: compound vs DMSO. The method, then:
Increasing concentrations (0–1 μM) of LexA-S119A were mixed with 10 nM SOS operator DNA labeled with Cy5 in EMSA running buffer (70 mM Tris-HCl pH 7.5, 10 mM MgCl2, 150 mM NaCl, 5 mM DTT, 0.1 mg/ml BSA, 10 ng/μL ssDNA, 5% glycerol, 0.04% bromophenol blue) in the presence of 50 μM of compound (or DMSO carrier). After incubation at room temperature for 30 min, 20 μL of each reaction was subjected to 6% native PAGE. Gels were visualized on a Typhoon Imager using default fluorescence filter settings for Cy5. Gel bands were quantified using ImageJ (NIH, Bethesda, MD, United States) to determine the fraction of bound DNA at each LexA concentration. Data were fitted to a variable-slope sigmoidal dose-response curve.

In series [9] the target is T5, full length E. coli LexA (Escherichia coli, UniProt P0A7C2).
T5 construct: a fluorescence-independent assay using a full-length version of E. coli LexA was employed; made in house
Briefly: Thermal shift assay of LexA. Particulars: LexA 5 µM, compound 50 µM; LexA alone Tm 57.4 ± 0.4. Format: binding. How it is done:
(§2) Supplementary Figure 2. Binding of 14 to LexA alone. (a) Inhibition of the auto-proteolysis of 32P-labelleled full length E. coli LexA by 14 in the absence of RecA. All data represent the mean of two independent measurements and the error bars represent the range of error. The error of the IC50 value is the standard deviation of the fit of equation 1 to the data. (b) Thermal shift observed upon binding of 14 to full length E. coli LexA. The concentrations of LexA and 14 were 5 µM and 50 µM, respectively. The errors for the Tm values are the standard deviations of the fits of equation S1 to the data.
(§3) Cy5-labeled operator DNA Bound DNA
(§4) Supplementary Figure 3. LexA DNA binding activity is not impacted by 14. Varying concentrations of […]
(§5) (SOS box). The titrations were performed in the presence of DMSO or 40 μM of 14. The samples were separated on a non-denaturing polyacrylamide gel (at right) and the bound fraction calculated. […]

The target of series [10] is T5, full length E. coli LexA. The experiment in a line: Auto-proteolysis of 32P-labelled full length E. coli LexA in the absence of RecA. The format is biochemical. The method, then:
as §2, §3, §4, §5

For series [11], the system named is recA promoter GFP reporter (SOS response). The experiment in a line: Cell-based SOS reporter assay (GFP under recA promoter, ciprofloxacin-induced). Particulars: Escherichia coli, 2 h, read-out: IC50, GFP assay. On the set-up: species or system E. coli MG1655 ΔsulA ΔtolC. The method, then: An E. coli MG1655 strain lacking sulA (ΔsulA) and the tolC transporter (ΔtolC) ([Mo et al., 2016]) was transformed with a reporter plasmid in which gfp expression was under the control of the recA promoter (pMS201 pRecA GFP) ([Zaslaver et al., 2006]). To perform assays overnight, cultures of the reporter strain were diluted 100-fold in M9 minimal media and grown at 37°C with agitation to an OD595 of ∼0.6. For each reaction sample 100 μL of culture were mixed with 100 μL of M9 minimal media containing ciprofloxacin (256 ng/mL). Pre-diluted compounds were added (5 μL) in DMSO and cultures were incubated at 37°C with agitation for 2 h after which the cells were fixed by adding 200 μL of phosphate buffered saline, pH 7.4 containing 1% paraformaldehyde. After 1 h of fixing, the cells were spun down at 4,000 rpm and re-suspended in phosphate buffered saline, pH 7.4. Fixed cells were analyzed using flow cytometry (BD FACSCalibur, Ex/Em: 488 nm/530 nm) and the mean fluorescence of 20,000 cells in each condition was recorded.

For series [12], the system named is ΔtolC E. coli. The experiment in a line: MIC of ciprofloxacin. The format is cell-based. The note with it: Escherichia coli.

Structures are written as SMILES.

T2 sequence (P0A7G6 2-353): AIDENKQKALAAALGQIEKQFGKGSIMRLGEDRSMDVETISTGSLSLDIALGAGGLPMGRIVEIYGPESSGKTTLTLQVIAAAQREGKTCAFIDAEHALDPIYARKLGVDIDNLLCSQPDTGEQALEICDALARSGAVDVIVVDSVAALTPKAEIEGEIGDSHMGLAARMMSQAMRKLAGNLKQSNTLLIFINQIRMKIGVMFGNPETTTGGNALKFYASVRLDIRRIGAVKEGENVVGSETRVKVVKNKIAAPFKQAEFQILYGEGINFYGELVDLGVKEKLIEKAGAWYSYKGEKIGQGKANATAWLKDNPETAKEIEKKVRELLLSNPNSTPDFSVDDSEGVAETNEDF
T2 sequence (P0A7C2 75-202): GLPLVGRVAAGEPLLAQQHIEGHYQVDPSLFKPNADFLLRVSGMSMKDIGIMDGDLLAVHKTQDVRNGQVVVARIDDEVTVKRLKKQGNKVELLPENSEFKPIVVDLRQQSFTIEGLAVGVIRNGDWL
T5 sequence (P0A7C2 whole entry): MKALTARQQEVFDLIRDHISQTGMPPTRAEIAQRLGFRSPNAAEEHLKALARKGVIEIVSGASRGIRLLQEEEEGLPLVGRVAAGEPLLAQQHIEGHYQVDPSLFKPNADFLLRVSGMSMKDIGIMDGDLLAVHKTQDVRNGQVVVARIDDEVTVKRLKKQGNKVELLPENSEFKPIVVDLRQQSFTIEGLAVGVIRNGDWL
T1 sequence (P37452 whole entry): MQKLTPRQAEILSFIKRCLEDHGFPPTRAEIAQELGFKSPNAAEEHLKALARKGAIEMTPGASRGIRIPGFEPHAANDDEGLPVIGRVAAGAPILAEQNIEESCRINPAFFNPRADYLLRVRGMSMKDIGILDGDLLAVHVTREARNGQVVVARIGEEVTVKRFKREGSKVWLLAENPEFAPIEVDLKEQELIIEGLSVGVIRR
T3 sequence (P0A7C2 whole entry): as the sequence (P0A7C2 whole entry) above
T4 sequence (P0A7C2 whole entry S119A): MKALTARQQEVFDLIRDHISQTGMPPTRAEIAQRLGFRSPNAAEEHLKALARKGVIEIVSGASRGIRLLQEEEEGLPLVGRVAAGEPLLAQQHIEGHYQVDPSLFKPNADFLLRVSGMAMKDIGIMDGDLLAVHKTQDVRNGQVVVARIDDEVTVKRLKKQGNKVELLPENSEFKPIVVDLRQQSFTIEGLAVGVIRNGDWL

Take `CCOc1ccc(NC(=O)Cn2nnc(C(=O)Nc3ccc(C)c(C)c3)c2N)cc1` [Compound 1]: the values for the 50% inhibitory concentration (IC50) in series [1] and in series [3] were 130 ± 28 µM and 32 ± 6 µM, respectively. The solubility in [2] is at least 111 µM. The compound also returned a cytotoxic concentration (CC50) in series [4] of 277 µM.

Take `Cc1ccc(NC(=O)c2nnn(CC(=O)Nc3ccccc3)c2N)cc1C` [Compound 2]: in series [5], the “rank order of activities, ortho mono-substitution on area A phenyl” value was “Me (5) > Et (22) > OMe (23) > OEt (24) = H (2)” and the “activity in FlAsH-LexA cleavage assay (in words)” value (“activity” for short) was “loss of activity”. The IC50 in series [3] was over 100 µM.

Consider `Cc1ccc(NC(=O)c2nnn(CC(=O)NC3CCCCC3)c2N)cc1C` [Compound 3], for which the “activity” value in series [5] is recorded as “returned activity”. Also, in series [2], the solubility is at least 111 µM. The IC50 in series [3] turned out to be 44 ± 4 µM.

Take `Cc1ccc(NC(=O)c2nnn(CC(=O)NC3CCCCCC3)c2N)cc1C` [Compound 4]: the “activity” value in [5] is “returned activity”. Besides, in series [2], the solubility is at least 111 µM. In series [3], the IC50 came out at 22 ± 3 µM.

For `Cc1ccc(NC(=O)c2nnn(CC(=O)Nc3ccccc3C)c2N)cc1C` [Compound 5], the “rank order of activities, ortho mono-substitution on area A phenyl” value in series [5] is recorded as “Me (5) > Et (22) > OMe (23) > OEt (24) = H (2)”. In addition, the solubility in series [2] is at least 111 µM. For the same compound, it took 17 ± 2 µM to reach half-maximal inhibition in series [3] (IC50).

As to `Cc1cccc(NC(=O)Cn2nnc(C(=O)Nc3ccc(C)c(C)c3)c2N)c1` [Compound 6], the “activity” value in series [5] is “not tolerated”. In [3], the IC50 was over 100 µM.

Turning to `Cc1ccc(NC(=O)Cn2nnc(C(=O)Nc3ccc(C)c(C)c3)c2N)cc1` [Compound 7], in series [2], the solubility is at least 111 µM. Further, the IC50 in series [3] worked out at 18 ± 1 µM.

Regarding `Cc1ccc(NC(=O)Cn2nnc(C(=O)Nc3ccc(C)c(C)c3)c2N)c(C)c1` [Compound 8], in series [5], the “activity” value is on record as “tolerated but not significantly superior to ortho-substitution alone”. In addition, the solubility in series [2] is at least 111 µM. The half-maximal inhibitory concentration (IC50) in series [3] was 15 ± 2 µM.

Turning to `CCOc1ccc(NC(=O)Cn2nnc(C(=O)Nc3ccccc3C)c2N)cc1` [Compound 9], the “activity” value in [5] is recorded as “not tolerated”. Moreover, in [3], the IC50 is over 100 µM.

As to `CCOc1ccc(NC(=O)Cn2nnc(C(=O)Nc3cccc(C)c3)c2N)cc1` [Compound 10], the “activity” value in [5] is recorded as “allowed”. Besides, in [2], the solubility was at least 111 µM. Besides, the IC50 in [3] was 33 ± 4 µM.

As to `CCOc1ccc(NC(=O)Cn2nnc(C(=O)Nc3ccc(C)cc3)c2N)cc1` [Compound 11], the “activity” value in [5] is “allowed”. Moreover, the solubility in series [2] was at least 111 µM. For the same compound, half-maximal inhibition in series [3] (IC50) was put at 15 ± 2 µM.

Consider `CCOC(=O)c1ccc(NC(=O)c2nnn(CC(=O)Nc3ccc(OCC)cc3)c2N)cc1` [Compound 12], for which the “activity” value in series [5] is recorded as “tolerated”. For the same compound, in [2], the solubility was at least 111 µM. In series [3], this compound registered a half-maximal inhibitory concentration (IC50) of 19 ± 3 µM.

`CCOc1ccc(NC(=O)Cn2nnc(C(=O)Nc3cccnc3)c2N)cc1` [Compound 13]: the “activity” value in series [5] was “tolerated”. Further, the solubility in [2] was at least 111 µM. In series [3], this compound had a half-maximal inhibitory concentration (IC50) of 40 ± 3 µM.

In the case of `CCOc1ccc(NC(=O)Cn2nnc(C(=O)Nc3ccccc3)c2N)cc1` [Compound 14, 5-amino-1-{2-[(4-ethoxyphenyl)amino]-2-oxoethyl}-N-phenyl-1H-1,2,3-triazole-4-carboxamide], the “suppression of ciprofloxacin-induced appearance of resistance to rifampicin” value in [6] (100 μM compound) is reported as “effective in reducing the appearance of resistance to rifampicin”. The “decrease in per generation mutation rate relative to ciprofloxacin alone” value in [6] (100 μM compound + ciprofloxacin 1.25 ng/mL, rifampin resistance, 48 h) was “approximately threefold”. Further, the “mutation rate, compound alone” value in series [6] (100 μM compound, no ciprofloxacin) is “comparable to DMSO alone controls”. Further, the half-maximal inhibitory concentration (IC50) in series [1] came to 5.9 ± 0.4 µM; in series [7], 10 ± 1 µM; in [10], 15.2 ± 2.5 µM; in series [3], 9 ± 1 µM; in series [11], 32 ± 2 µM. Also, in series [2], the solubility is at least 111 µM. For the same compound, the “effect on LexA DNA binding (EMSA)” value in [8] is given as “not impacted”. The melting temperature (Tm) in series [9] was determined as 67.0 ± 0.1 °C. The compound also had a CC50 in series [4] of over 500 µM.

With `O=C(O)c1cn(C2CC2)c2cc(N3CCNCC3)c(F)cc2c1=O` [ciprofloxacin, reference compound], the “mutation rate, ciprofloxacin alone” value in [6] (sub-MIC concentration 1.25 ng/mL) was “produced an induction of mutagenesis”. The minimal inhibitory concentration (MIC) in series [12] was 5 ng/mL.

The record behind these values is PMC6305444, “Advancement of the 5-Amino-1-(Carbamoylmethyl)-1H-1,2,3-Triazole-4-Carboxamide Scaffold to Disarm the Bacterial SOS Response” (Frontiers in Microbiology, 2018).
